From US10450301B2, “Apoptosis signal-regulating kinase 1 inhibitors and methods of use thereof” (ENANTA PHARMACEUTICALS, INC., priority 2017, dated 2019)

Target: ASK1 (Homo sapiens (Human), UniProt Q99683)
Experiment: HTRF KinEASE Assay (TR-FRET, STK3 peptide substrate), inhibition of ASK1
Type: biochemical
Conditions: 5 nM ASK1 kinase, 1 μM STK3 peptide substrate, 100 μM ATP, 3 hours; compound 0 to 10 μM
Method in brief: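 TR-FRET HTRF KinEASE-STK format with an STK3 biotinylated peptide substrate. Signal tracks phosphorylation; IC50 from curve fitting.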

Sequence of ASK1 (Q99683 whole entry): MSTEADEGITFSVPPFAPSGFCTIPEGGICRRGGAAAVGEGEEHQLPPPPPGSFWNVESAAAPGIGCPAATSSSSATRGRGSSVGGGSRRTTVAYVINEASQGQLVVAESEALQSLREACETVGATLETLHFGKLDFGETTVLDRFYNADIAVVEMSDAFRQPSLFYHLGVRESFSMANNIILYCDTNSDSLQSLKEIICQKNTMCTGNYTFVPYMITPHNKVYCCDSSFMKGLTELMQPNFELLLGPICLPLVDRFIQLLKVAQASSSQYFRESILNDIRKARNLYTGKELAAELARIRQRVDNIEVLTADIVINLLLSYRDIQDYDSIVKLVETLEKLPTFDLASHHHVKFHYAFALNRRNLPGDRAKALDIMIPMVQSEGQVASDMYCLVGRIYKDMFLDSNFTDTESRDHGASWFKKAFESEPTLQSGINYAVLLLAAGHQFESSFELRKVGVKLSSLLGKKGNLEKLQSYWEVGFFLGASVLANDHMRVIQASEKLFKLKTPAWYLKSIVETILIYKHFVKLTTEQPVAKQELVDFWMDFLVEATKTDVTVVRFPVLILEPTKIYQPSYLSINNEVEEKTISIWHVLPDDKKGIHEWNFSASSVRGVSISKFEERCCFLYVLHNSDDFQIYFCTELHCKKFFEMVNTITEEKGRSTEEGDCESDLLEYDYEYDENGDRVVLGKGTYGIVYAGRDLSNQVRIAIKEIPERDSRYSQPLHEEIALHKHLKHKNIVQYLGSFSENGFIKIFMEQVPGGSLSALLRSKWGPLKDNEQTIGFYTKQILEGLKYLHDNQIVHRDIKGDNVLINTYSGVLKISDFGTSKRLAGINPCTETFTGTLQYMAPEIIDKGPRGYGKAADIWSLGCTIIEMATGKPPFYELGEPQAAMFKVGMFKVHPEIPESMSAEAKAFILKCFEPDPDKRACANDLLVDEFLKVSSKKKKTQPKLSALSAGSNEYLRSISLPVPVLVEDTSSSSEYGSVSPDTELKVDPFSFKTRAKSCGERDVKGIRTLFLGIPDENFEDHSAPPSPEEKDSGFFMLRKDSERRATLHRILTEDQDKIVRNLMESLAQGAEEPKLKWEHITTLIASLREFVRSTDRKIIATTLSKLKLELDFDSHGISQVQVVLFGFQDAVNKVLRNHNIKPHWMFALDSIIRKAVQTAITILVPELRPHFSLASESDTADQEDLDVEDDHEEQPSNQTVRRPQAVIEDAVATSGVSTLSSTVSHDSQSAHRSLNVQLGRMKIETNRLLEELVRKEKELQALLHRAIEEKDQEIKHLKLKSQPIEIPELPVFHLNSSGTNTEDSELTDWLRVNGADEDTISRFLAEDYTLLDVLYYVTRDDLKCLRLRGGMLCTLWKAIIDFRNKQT

| IC50 [nM] | Structure (SMILES) |
| --- | --- |
| 1 to 10 | CC(C)CS(=O)(=O)N1CCc2cnc(C(=O)Nc3cccc(-c4nnnn4C(C)C)n3)cc2C1 [Example 141] |
| 1 to 10 | C[C@H](CO)n1nnnc1-c1cccc(NC(=O)c2cc3c(cn2)CCN(C(=O)c2ccc(F)cc2)C3)n1 [Example 121] |
| > 1000 | CC(C)N1Cc2cc(F)c(C(=O)Nc3cccc(-c4nnnn4C(C)C)n3)cc2C1=O [Example 176] |
| 1 to 10 | COCCN1CCc2cnc(C(=O)Nc3cccc(-c4nnnn4[C@H](C)CO)n3)cc2C1 [Example 134] |
| 1 to 10 | CC(C)n1nnnc1-c1cccc(NC(=O)c2cc3c(cn2)CCN(S(=O)(=O)CC2CC(F)(F)C2)C3)n1 [Example 139] |
| 10 to 100 | CCN1CCc2cnc(C(=O)Nc3cccc(-c4nnnn4[C@H](C)CO)n3)cc2C1 [Example 136] |
| 10 to 100 | CC(C)n1nnnc1-c1cccc(NC(=O)c2cc3c(cn2)CCN(C(=O)OC(C)(C)C)C3)n1 [Example 153, tert-butyl 7-((6-(1-isopropyl-1H-tetrazol-5-yl)pyridin-2-yl)carbamoyl)-3,4-dihydro-2,6-naphthyridine-2(1H)-carboxylate] |
| 1 to 10 | C[C@H](CO)n1nnnc1-c1cccc(NC(=O)c2cc3c(cn2)CCN(S(=O)(=O)C2CC2)C3)n1 [Example 148] |
| 1 to 10 | CCN(CC)C(=O)N1CCc2cnc(C(=O)Nc3cccc(-c4nnnn4C(C)C)n3)cc2C1 [Example 113] |
| > 1000 | CC(C)n1nnnc1-c1cccc(NC(=O)c2cc3c(cn2)CN(C(=O)OCc2ccccc2)C3)n1 [Example 180] |
| 1 to 10 | C[C@H](CO)n1nnnc1-c1cccc(NC(=O)c2cc3c(cn2)CCN(C(=O)NC2CC2)C3)n1 [Example 131] |
| 1 to 10 | C[C@H](CO)n1nnnc1-c1cccc(NC(=O)c2cc3c(cn2)CCN(S(=O)(=O)N2CCCC2)C3)n1 [Example 154] |
| 1 to 10 | CCNC(=O)N1CCc2cnc(C(=O)Nc3cccc(-c4nnnn4[C@H](C)CO)n3)cc2C1 [Example 170] |
| 1 to 10 | C[C@H](CO)n1nnnc1-c1cccc(NC(=O)c2cc3c(cn2)CN(C(=O)OCc2ccccc2)C3)n1 [Example 178] |
| 1 to 10 | CC(C)CS(=O)(=O)N1CCc2cnc(C(=O)Nc3cccc(-c4nnnn4[C@H](C)CO)n3)cc2C1 [Example 161] |

Continued, molecule first:

| Structure (SMILES) | IC50 [nM] |
| --- | --- |
| CC1c2cc(C(=O)Nc3cccc(-c4nnnn4C(C)C)n3)c(F)cc2CCN1C(=O)N1CCCC1 (stereo not shown) [Example 69] | 10 to 100 |
| CCCOC(=O)N1CCc2ccc(C(=O)Nc3cccc(-c4nncn4C(C)C)n3)cc2C1 [Example 35] | 10 to 100 |
| CCN1CCc2cc(F)c(C(=O)Nc3cccc(-c4nnnn4C(C)C)n3)cc2C1=O [Example 98, 2-ethyl-6-fluoro-N-(6-(1-isopropyl-1H-tetrazol-5-yl)pyridin-2-yl)-1-oxo-1,2,3,4-tetrahydroisoquinoline-7-carboxamide] | > 1000 |
| CC(C)N(C)C(=O)N1CCc2cc(F)c(C(=O)Nc3cccc(-c4nnnn4C(C)C)n3)cc2C1 [Example 80] | 10 to 100 |
| CC(C)n1nnnc1-c1cccc(NC(=O)c2cc3c(cc2F)CCN(C(=O)N2CCCC2)C3)n1 [Example 93] | 10 to 100 |
| CC(C)n1nnnc1-c1cccc(NC(=O)c2cc3c(cc2F)CCN(C(=O)N2CCN(C)CC2)C3)n1 [Example 91] | 10 to 100 |
| CC(C)n1nnnc1-c1cccc(NC(=O)c2cc3c(cc2F)CCN(S(=O)(=O)CC(F)F)C3)n1 [Example 103] | 10 to 100 |
| CC(=O)OC[C@@H](C)n1nnnc1-c1cccc(NC(=O)c2cc3c(cc2F)CCN(S(=O)(=O)CCC(F)(F)F)C3)n1 [Example 84] | > 1000 |
| CC(C)n1nnnc1-c1cccc(NC(=O)c2cc3c(cc2F)CCN(C(=O)OCc2ccccc2)C3)n1 [Example 31] | 10 to 100 |
| CCCCNC(=O)N1CCc2ccc(C(=O)Nc3cccc(-c4nncn4C(C)C)n3)cc2C1 [Example 62] | 1 to 10 |
| COCCS(=O)(=O)N1Cc2ccc(C(=O)Nc3cccc(-c4nnnn4C(C)C)n3)cc2C1 [Example 15] | > 1000 |
| CC(C)n1cnnc1-c1cccc(NC(=O)c2cc3c(cc2F)CCN(C(=O)NC2CCCC2)C3)n1 [Example 51] | 1 to 10 |
| CC(C)n1cnnc1-c1cccc(NC(=O)c2cc3c(cc2F)CCN(S(=O)(=O)C2CCCC2)C3)n1 [Example 21] | 1 to 10 |
| CC(C)n1nnnc1-c1cccc(NC(=O)c2cc3c(cc2F)CCN(C(=O)OC2CCCC2)C3)n1 [Example 57] | 10 to 100 |
| C[C@H](CO)n1nnnc1-c1cccc(NC(=O)c2cc3c(cc2F)CCN(C(=O)N2CCCC2)C3)n1 [Example 76] | 1 to 10 |
| CC(C)n1cnnc1-c1cccc(NC(=O)c2ccc3c(c2)CN(C(=O)OCCF)CC3)n1 [Example 65] | 10 to 100 |

| Structure (SMILES) | IC50 [nM] |
| --- | --- |
| CC(C)n1nnnc1-c1cccc(NC(=O)c2cc3c(cc2F)CCN(C(=O)C2CCCC2)C3)n1 [Example 97] | 10 to 100 |
| CC(C)c1nnnn1-c1cccc(NC(=O)c2cc3c(cc2F)CCN(C(=O)OCc2ccccc2)C3)n1 [Example 83, benzyl 6-fluoro-7-((6-(5-isopropyl-1H-tetrazol-1-yl)pyridin-2-yl)carbamoyl)-3,4-dihydroisoquinoline-2(1H)-carboxylate] | > 1000 |
| CCOC(=O)N1Cc2ccc(C(=O)Nc3cccc(-c4nnnn4C(C)C)n3)cc2C1 [Example 16] | > 1000 |
| CC(C)n1cnnc1-c1cccc(NC(=O)c2cc3c(cc2F)CCN(S(=O)(=O)CC2CC2)C3)n1 [Example 43] | 10 to 100 |
| CC(C)n1cnnc1-c1cccc(NC(=O)c2ccc3c(c2)CN(C(=O)c2nccs2)CC3)n1 [Example 32] | 10 to 100 |
| CC(C)N1Cc2cnc(C(=O)Nc3cccc(-c4nncn4C(C)C)n3)cc2C1=O [Example 19, 2-isopropyl-N-(6-(4-isopropyl-4H-1,2,4-triazol-3-yl)pyridin-2-yl)-1-oxo-2,3-dihydro-1H-pyrrolo[3,4-c]pyridine-6-carboxamide] | 10 to 100 |
| CC(C)c1nnnn1-c1cccc(NC(=O)c2cc3c(cc2F)CCN(C(=O)N(C)CCC(F)(F)F)C3)n1 [Example 99] | 100 to 1000 |
| CC(C)n1cnnc1-c1cccc(NC(=O)c2ccc3c(c2)CN(C(=O)OCc2ccccc2)C3)n1 [Example 3, benzyl 5-((6-(4-isopropyl-4H-1,2,4-triazol-3-yl)pyridin-2-yl)carbamoyl)isoindoline-2-carboxylate] | 10 to 100 |
| CC(C)n1nnnc1-c1cccc(NC(=O)c2cc3c(cc2F)CCN(S(=O)(=O)N(C)C)C3)n1 [Example 89] | 10 to 100 |
| CC(C)n1cnnc1-c1cccc(NC(=O)c2ccc3c(c2)CN(C(=O)OC2CCCC2)CC3)n1 [Example 34] | 10 to 100 |
| CC(C)n1cnnc1-c1cccc(NC(=O)c2ccc3c(c2)CN(C(=O)N2CCCC2)C3)n1 [Example 17] | 10 to 100 |
| CC(C)n1nnnc1-c1cccc(NC(=O)c2cc3c(cc2F)CCN(S(=O)(=O)C2CC2)C3)n1 [Example 88] | > 1000 |
| CC(C)n1nnnc1-c1cccc(NC(=O)c2cc3c(cn2)CCN(S(=O)(=O)C2CC2)C3)n1 [Example 110, 6-(cyclopropylsulfonyl)-N-(6-(1-isopropyl-1H-tetrazol-5-yl)pyridin-2-yl)-5,6,7,8-tetrahydro-2,6-naphthyridine-3-carboxamide] | 1 to 10 |
| CC(C)n1nnnc1-c1cccc(NC(=O)c2cc3c(cc2F)CCN(C(=O)N2CCSCC2)C3)n1 [Example 105] | 10 to 100 |
| CC(C)n1nnnc1-c1cccc(NC(=O)c2cc3c(cc2F)CCN(S(=O)(=O)CC2CC2)C3)n1 [Example 87] | 10 to 100 |
